# Experimental data: patent publication US4228155A, “Synthetic peptides having pituitary growth hormone releasing activity” (Beckman Instruments, Inc., priority 1979, dated 1980)
# Several values for one entry are separate records, joined by “and”; a condition that tells them apart may be missing. Equal entries are not always repeated. Where a SMILES comes first, the peptide text is derived from it. [ ]: non-standard residue; d: D form.
# System: pituitary
# Assay: In vitro growth hormone release study (incubated rat pituitaries, GH radioimmunoassay)
# Format: cell-based
# Conditions: pituitaries of 20 day old female rats, ΔGH (I3-P2),(I4-P2), ± SEM
# Experimental: Female rats of the CD-1 strain were housed in a constant temperature room at 24° C. with 14 hours light and 10 hours darkness. The rats were fed Purina brand rat chow ab libitum.
# All studies were started between 0800 and 1000 hours.
# Pituitaries were removed from 20 day old female rats. Two pituitaries were incubated at 36° C. in 1 ml of lactated Ringer's solution in 10 ml polytetrafluoroethylene beakers in a Dubnoff Shaker (90 cycles/min.). The pituitaries were incubated a total of 4 hours (P1, P2, I3, and I4). After two successive one hour preincubation periods (P1, P2), the peptide was added to the incubation medium hourly for 2 hours (I3, I4).
# This in vitro study was performed in triplicate and a standard radioimmunoassay of growth hormone present in the incubation medium was performed in duplicate. The hormonal activity was calculated as the difference (Δ) of growth hormone (GH) levels between I3, I4 and P2, i.e., (I3 -P2) and (I4 -P2). P values were calculated by Students' t test using six growth hormone values for each value recorded.
# The growth hormone radioimmunoassay reagents were distributed by the National Institute of Arthritis and […] (NIAMDD) program. The growth hormone values were calculated in terms of nanograms (ng) of a rat standard with a growth hormone potency of 0.61 units/mg.
smiles,measurement,setting,value
"CSCC[C@H](NC(=O)[C@H](CCCCN)NC(=O)[C@@H](Cc1ccccc1)NC(=O)[C@@H](Cc1ccccc1)NC(=O)[C@@H](N)Cc1c[nH]c2ccccc12)C(N)=O [H2 N--Trp--D-Phe--D-Phe--Lys--Met--CONH2, H2 N-Trp-D-Phe-D-Phe-Lys-Met-CONH2] (H-W[dF][dF]KM-NH2)",IN VITRO GROWTH HORMONE RELEASE,0.3μg peptide,24 ± 24 ngΔGH/ml incubation medium
same,IN VITRO GROWTH HORMONE RELEASE,10μg peptide,853 ± 138 ngΔGH/ml incubation medium and 440 ± 180 ngΔGH/ml incubation medium
